Data: patent US7563805B2, “Tri-, tetra-substituted-3-aminopyrrolidine derivative” (Daiichi Pharmaceutical Co., Ltd., priority 2005, dated 2009)
Values after ≈ are worked out from the molar mass of the structure shown. Where two headings read alike, the source gives them in different places.

Experiments:
[1] = system: E. coli NIHJ; assay: antibacterial activity (MIC), standard method of Japanese Society of Chemotherapy
[2] = system: P. vulgaris, 08601; assay: as above
[3] = system: S. marscecens, 10100; assay: as above
[4] = system: P. aeruginosa, 32121; assay: as above
[5] = system: S. aureus, 209P; assay: as above
[6] = system: S. epidermidis, 56500; assay: as above
[7] = system: E. faecalis, ATCC 19433; assay: as above
[8] = system: S. aureus, 87037 (LVFX-resistant MRSA); assay: as above; conditions: S. aureus, 87037 (LVFX-resistant MRSA)
[9] = system: S. pneumoniae, J24 (penicillin-intermediate resistant bacteria); assay: as above
[10] = molecular target: hERG K+ channel (Homo sapiens, UniProt Q12809); assay: hERG-K^+ channel blocking effect
[11] = system: P. aeruginosa, 32104; assay: antibacterial activity (MIC), standard method of Japanese Society of Chemotherapy
[12] = system: Mycobacterium tuberculosis (sensitive bacteria); assay: anti-Mycobacterium tuberculosis (sensitive bacteria) activity, MIC; type: cell-based
[13] = system: Mycobacterium tuberculosis (quinolone sensitive); assay: anti-Mycobacterium tuberculosis (quinolone sensitive) activity, MIC; type: cell-based
[14] = Proteus vulgaris, 08601, P. vulgaris
[15] = Staphylococcus epidermidis, 56500, S. epidermidis
[16] = Enterococcus faecalis, ATCC19433, E. faecalis

hERG K+ channel, sequence (Q12809 whole entry): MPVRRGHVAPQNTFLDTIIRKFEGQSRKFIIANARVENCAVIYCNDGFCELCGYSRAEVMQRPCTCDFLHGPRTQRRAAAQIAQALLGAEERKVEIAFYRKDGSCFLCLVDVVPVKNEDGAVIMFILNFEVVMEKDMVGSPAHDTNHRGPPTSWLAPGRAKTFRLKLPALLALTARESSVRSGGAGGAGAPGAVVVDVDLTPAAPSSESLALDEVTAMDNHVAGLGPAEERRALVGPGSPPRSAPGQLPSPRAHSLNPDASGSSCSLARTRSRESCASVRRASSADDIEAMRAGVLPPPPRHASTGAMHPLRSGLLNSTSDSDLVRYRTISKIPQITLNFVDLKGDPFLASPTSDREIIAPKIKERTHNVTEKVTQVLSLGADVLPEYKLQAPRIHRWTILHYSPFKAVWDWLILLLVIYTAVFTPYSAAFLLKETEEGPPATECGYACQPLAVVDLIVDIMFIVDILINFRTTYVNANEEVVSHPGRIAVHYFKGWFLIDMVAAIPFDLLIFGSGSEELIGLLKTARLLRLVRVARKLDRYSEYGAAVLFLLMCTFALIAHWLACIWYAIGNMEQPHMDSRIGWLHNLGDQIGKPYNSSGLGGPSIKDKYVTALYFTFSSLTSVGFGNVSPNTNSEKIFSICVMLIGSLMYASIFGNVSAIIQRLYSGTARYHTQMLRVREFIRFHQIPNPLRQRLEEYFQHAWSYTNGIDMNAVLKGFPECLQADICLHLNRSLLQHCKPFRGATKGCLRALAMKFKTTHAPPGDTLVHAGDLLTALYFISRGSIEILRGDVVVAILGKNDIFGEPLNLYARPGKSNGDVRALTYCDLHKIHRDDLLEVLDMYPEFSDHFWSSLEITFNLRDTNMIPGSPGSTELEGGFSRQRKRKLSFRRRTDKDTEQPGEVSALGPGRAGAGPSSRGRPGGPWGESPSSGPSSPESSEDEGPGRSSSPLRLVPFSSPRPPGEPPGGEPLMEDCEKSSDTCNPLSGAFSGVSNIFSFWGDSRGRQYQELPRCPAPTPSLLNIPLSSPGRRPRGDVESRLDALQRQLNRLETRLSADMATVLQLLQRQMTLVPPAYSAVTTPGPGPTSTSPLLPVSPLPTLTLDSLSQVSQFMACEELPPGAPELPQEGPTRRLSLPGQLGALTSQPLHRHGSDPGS

## COc1c(N2CC(C)[C@@](N)(CF)C2)c(F)cc2c(=O)c(C(=O)O)cn([C@@H]3C[C@@H]3F)c12 (stereo partly drawn) [Example 28, 7-[(3S)-3-Amino-3-fluoromethyl-4-methylpyrrolidin-1-yl]-6-fluoro-1-[(1R,2S)-2-fluoro-1-cyclopropyl]-8-methoxy-1,4-dihydro-4-oxoquinoline-3-carboxylic acid]
other
  melting point: 167 to 169 °C
[1]; Escherichia coli
  MIC: 0.025 µg/mL (≈ 0.0588 µM)
[2]; [14]
  MIC: 0.05 µg/mL (≈ 0.118 µM)
[3]
  MIC: 0.39 µg/mL (≈ 0.917 µM)
[4]; Pseudomonas aeruginosa
  MIC: 0.39 µg/mL (≈ 0.917 µM)
[5]; Staphylococcus aureus
  MIC: 0.025 µg/mL (≈ 0.0588 µM)
[6]; [15]
  MIC: 0.05 µg/mL (≈ 0.118 µM)
[7]; [16]
  MIC: 0.2 µg/mL (≈ 0.47 µM)
[8]; Staphylococcus aureus, MRSA
  MIC: 0.2 µg/mL (≈ 0.47 µM)
[9]; Streptococcus pneumoniae
  MIC: 0.1 µg/mL (≈ 0.235 µM)

## Cc1c(N2C[C@H](CF)[C@](C)(N)C2)c(F)cc2c(=O)c(C(=O)O)cn(C3CC3)c12 [Example 23, 7-[(3S,4S)-3-Amino-4-fluoromethyl-3-methylpyrrolidin-1-yl]-1-cyclopropyl-6-fluoro-8-methyl-1,4-dihydro-4-oxoquinoline-3-carboxylic acid]
other
  melting point: 212 to 215 °C
[10]
  inhibition at 30 µM: 3 ± 4.1%
  inhibition at 100 µM: 4.6 ± 4.7%
  inhibition at 300 µM: 16.7 ± 8.4%
[1]; Escherichia coli
  MIC: ≤ 0.003 µg/mL
[2]; [14]
  MIC: 0.006 µg/mL (≈ 0.0153 µM)
[3]
  MIC: 0.05 µg/mL (≈ 0.128 µM)
[4]; Pseudomonas aeruginosa
  MIC: 0.05 µg/mL (≈ 0.128 µM)
[5]; Staphylococcus aureus
  MIC: 0.025 µg/mL (≈ 0.0639 µM)
[6]; [15]
  MIC: 0.05 µg/mL (≈ 0.128 µM)
[7]; [16]
  MIC: 0.1 µg/mL (≈ 0.255 µM)
[8]; Staphylococcus aureus, MRSA
  MIC: 0.39 µg/mL (≈ 0.996 µM)
[9]; Streptococcus pneumoniae
  MIC: 0.05 µg/mL (≈ 0.128 µM)

## C[C@H]1COc2c(N3CCN(C)CC3)c(F)cc3c(=O)c(C(=O)O)cn1c23 [LVFX, levofloxacin, reference compound]
[1]; Escherichia coli
  MIC: 0.012 µg/mL (≈ 0.0332 µM)
[2]; [14]
  MIC: 0.012 µg/mL (≈ 0.0332 µM)
[3]
  MIC: 0.1 µg/mL (≈ 0.277 µM)
[11]; Pseudomonas aeruginosa
  MIC: 0.2 µg/mL (≈ 0.553 µM)
[4]; Pseudomonas aeruginosa
  MIC: 0.1 µg/mL (≈ 0.277 µM)
[5]; Staphylococcus aureus
  MIC: 0.2 µg/mL (≈ 0.553 µM)
[6]; [15]
  MIC: 0.39 µg/mL (≈ 1.08 µM)
[7]; [16]
  MIC: 0.78 µg/mL (≈ 2.16 µM)
[8]; Staphylococcus aureus, MRSA
  MIC: > 6.25 µg/mL
[9]; Streptococcus pneumoniae
  MIC: 0.78 µg/mL (≈ 2.16 µM)

## COc1c(N2CC(F)[C@](C)(N)C2)c(F)cc2c(=O)c(C(=O)O)cn([C@@H]3C[C@@H]3F)c12 (single isomer, unassigned) [Example 25]
other
  melting point: 160 to 163 °C
[10]
  inhibition at 30 µM: 2 ± 7.2%
  inhibition at 100 µM: 4.2 ± 7.9%
  inhibition at 300 µM: 17.1 ± 14.4%

## COc1c(N2CC(F)[C@](C)(N)C2)c(F)cc2c(=O)c(C(=O)O)cn([C@@H]3C[C@@H]3F)c12 (single isomer, unassigned) [Example 26]
other
  melting point: 206 to 208 °C

## COc1c(N2CC(C)C(C)(N)C2)c(F)cc2c(=O)c(C(=O)O)cn([C@@H]3C[C@@H]3F)c12 (relative stereo) [Example 1, 7-[(3R*,4S*)-3-Amino-3,4-dimethylpyrrolidin-1-yl]-6-fluoro-1-[(1R,2S)-2-fluorocyclopropyl]-8-methoxy-1,4-dihydro-4-oxoguinoline-3-carboxylic acid]
[1]; Escherichia coli
  MIC: 0.025 µg/mL (≈ 0.0614 µM)
[2]; [14]
  MIC: 0.05 µg/mL (≈ 0.123 µM)
[3]
  MIC: 0.2 µg/mL (≈ 0.491 µM)
[11]; Pseudomonas aeruginosa
  MIC: 0.39 µg/mL (≈ 0.957 µM)
[4]; Pseudomonas aeruginosa
  MIC: 0.2 µg/mL (≈ 0.491 µM)
[5]; Staphylococcus aureus
  MIC: 0.025 µg/mL (≈ 0.0614 µM)
[6]; [15]
  MIC: 0.1 µg/mL (≈ 0.245 µM)
[7]; [16]
  MIC: 0.2 µg/mL (≈ 0.491 µM)
[8]; Staphylococcus aureus, MRSA
  MIC: 0.78 µg/mL (≈ 1.91 µM)
[9]; Streptococcus pneumoniae
  MIC: 0.1 µg/mL (≈ 0.245 µM)

## COc1c(N2C[C@H](CF)[C@](C)(N)C2)c(F)cc2c(=O)c(C(=O)O)cn([C@@H]3C[C@@H]3F)c12 [Example 20, 7-[(3S,4S)-3-Amino-4-fluoromethyl-3-methylpyrrolidin-1-yl]-6-fluoro-1-[(1R,2S)-2-fluoro-1-cyclopropyl]-8-methoxy-1,4-dihydro-4-oxoquinoline-3-carboxylic acid]
other
  melting point: 187 to 189 °C
[10]
  inhibition at 30 µM: 1.4 ± 4.5%
  inhibition at 100 µM: 8.5 ± 6.1%
  inhibition at 300 µM: 14.5 ± 6%

## COc1c(N2C[C@@H](CF)[C@@](C)(N)C2)c(F)cc2c(=O)c(C(=O)O)cn([C@@H]3C[C@@H]3F)c12 [Example 24, 7-[(3R,4R)-3-Amino-4-fluoromethyl-3-methylpyrrolidin-1-yl]-6-fluoro-1-[(1R,2S)-2-fluoro-1-cyclopropyl]-8-methoxy-1,4-dihydro-4-oxoquinoline-3-carboxylic acid]
other
  melting point: 185 to 188 °C

## COc1c(N2CC(C)(N)C3(CC3)C2)c(F)cc2c(=O)c(C(=O)O)cn([C@@H]3C[C@@H]3F)c12 (stereo partly drawn) [Example 10, 7-(7-Amino-7-methyl-5-azaspiro[2.4]heptan-5-yl)-6-fluoro-1-[(1R,2S)-2-fluorocyclopropyl]-8-methoxy-1,4-dihydro-4-oxoguinoline-3-carboxylic acid]
[1]; E. coli NIHJ
  MIC: 0.025 µg/mL (≈ 0.0596 µM)
[2]; P. vulgaris
  MIC: 0.05 µg/mL (≈ 0.119 µM)
[3]
  MIC: 0.2 µg/mL (≈ 0.477 µM)
[11]; P. aeruginosa
  MIC: 0.39 µg/mL (≈ 0.93 µM)
[4]; P. aeruginosa
  MIC: 0.2 µg/mL (≈ 0.477 µM)
[5]
  MIC: 0.05 µg/mL (≈ 0.119 µM)
[6]; S. epidermidis
  MIC: 0.2 µg/mL (≈ 0.477 µM)
[7]; E. faecalis
  MIC: 0.78 µg/mL (≈ 1.86 µM)
[8]
  MIC: 1.56 µg/mL (≈ 3.72 µM)
[9]
  MIC: 0.39 µg/mL (≈ 0.93 µM)

## CO[C@H]1/C=C/O[C@@]2(C)Oc3c(C)c(O)c4c(O)c(c(/C=N/N5CCN(C)CC5)c(O)c4c3C2=O)NC(=O)/C(C)=C\C=C\[C@H](C)[C@H](O)[C@@H](C)[C@@H](O)[C@@H](C)[C@H](OC(C)=O)[C@@H]1C [RFP, Rifampicin]
[12]; H37RV, strain H37Rv
  MIC: 0.125 µg/mL (≈ 0.152 µM)
[12]; strain Kurono
  MIC: 0.06 µg/mL (≈ 0.0729 µM)
[12]; strain Ravenel
  MIC: 0.125 µg/mL (≈ 0.152 µM)
[12]; strain TB-s 2
  MIC: 0.03 µg/mL (≈ 0.0365 µM)
[12]; strain TB-s 3
  MIC: 0.125 µg/mL (≈ 0.152 µM)
[12]; strain TB-s 4
  MIC: 0.06 µg/mL (≈ 0.0729 µM)
[12]; strain TB-s 5
  MIC: 0.06 µg/mL (≈ 0.0729 µM)
[12]; strain TB-s 6
  MIC: 0.125 µg/mL (≈ 0.152 µM)
[12]; strain TB-s 7
  MIC: 0.06 µg/mL (≈ 0.0729 µM)
[12]; strain TB-s 8
  MIC: 0.015 µg/mL (≈ 0.0182 µM)
[12]; strain TB-s 9
  MIC: 0.06 µg/mL (≈ 0.0729 µM)
[12]; strain TB-s 10
  MIC: 0.06 µg/mL (≈ 0.0729 µM)
[12]; strain TB-s 11
  MIC: 0.06 µg/mL (≈ 0.0729 µM)
[12]; strain TB-s 12
  MIC: 0.125 µg/mL (≈ 0.152 µM)
[12]; strain TB-s 13
  MIC: 0.06 µg/mL (≈ 0.0729 µM)
[12]; strain TB-s 14
  MIC: 0.03 µg/mL (≈ 0.0365 µM)
[12]; strain TB-s 15
  MIC: 0.06 µg/mL (≈ 0.0729 µM)
[12]; strain TB-s 16
  MIC: 0.06 µg/mL (≈ 0.0729 µM)
[12]; strain TB-s 17
  MIC: 0.06 µg/mL (≈ 0.0729 µM)
[12]; strain TB-s 18
  MIC: 0.03 µg/mL (≈ 0.0365 µM)
[12]; strain TB-s 19
  MIC: 0.125 µg/mL (≈ 0.152 µM)
[12]; strain TB-s 20
  MIC: 0.25 µg/mL (≈ 0.304 µM)
[12]; strain TB-s 21
  MIC: 0.03 µg/mL (≈ 0.0365 µM)
[12]; strain TB-s 22
  MIC: 0.015 µg/mL (≈ 0.0182 µM)
[13]; strain 1 (QR-3)
  MIC: > 128 µg/mL
[13]; strain 2 (QR-6)
  MIC: > 128 µg/mL
[13]; strain 3 (QR-1)
  MIC: 128 µg/mL (≈ 156 µM)
[13]; strain 4 (QR-9)
  MIC: > 128 µg/mL
[13]; strain MDR 1
  MIC: 16 µg/mL (≈ 19.4 µM)
[13]; strain MDR 3
  MIC: 128 µg/mL (≈ 156 µM)
[13]; strain MDR 4
  MIC: 64 µg/mL (≈ 77.8 µM)
[13]; strain MDR 5
  MIC: 32 µg/mL (≈ 38.9 µM)
[13]; strain MDR 7
  MIC: > 128 µg/mL
[13]; strain MDR 9
  MIC: 128 µg/mL (≈ 156 µM)
[13]; strain MDR 12
  MIC: 128 µg/mL (≈ 156 µM)
[13]; strain S 1
  MIC: 16 µg/mL (≈ 19.4 µM)

## COc1c(N2CC(OC)C(C)(N)C2)c(F)cc2c(=O)c(C(=O)O)cn([C@@H]3C[C@@H]3F)c12 (stereo partly drawn) [Example 19, 7-(3-Amino-4-methoxy-3-methylpyrrolidine-1-yl)-6-fluoro-1-[(1R,2S)-2-fluorocyclopropyl]-8-methoxy-1,4-dihydro-4-oxoquinoline-3-carboxylic acid]
other
  melting point: 162 to 163 °C

## Cc1c(N2CC(C)[C@@](N)(CF)C2)c(F)cc2c(=O)c(C(=O)O)cn([C@@H]3C[C@@H]3F)c12 (stereo partly drawn) [Example 31, 7-[(3S)-3-Amino-3-fluoromethyl-4-methylpyrrolidin-1-yl]-6-fluoro-1-[(1R,2S)-2-fluoro-1-cyclopropyl]-8-methyl-1,4-dihydro-4-oxoquinoline-3-carboxylic acid]
other
  melting point: 200 to 203 °C
[1]; Escherichia coli
  MIC: 0.006 µg/mL (≈ 0.0147 µM)
[2]; [14]
  MIC: 0.012 µg/mL (≈ 0.0293 µM)
[3]
  MIC: 0.1 µg/mL (≈ 0.244 µM)
[4]; Pseudomonas aeruginosa
  MIC: 0.05 µg/mL (≈ 0.122 µM)
[5]; Staphylococcus aureus
  MIC: 0.012 µg/mL (≈ 0.0293 µM)
[6]; [15]
  MIC: 0.025 µg/mL (≈ 0.0611 µM)
[7]; [16]
  MIC: 0.1 µg/mL (≈ 0.244 µM)
[8]; Staphylococcus aureus, MRSA
  MIC: 0.1 µg/mL (≈ 0.244 µM)
[9]; Streptococcus pneumoniae
  MIC: 0.05 µg/mL (≈ 0.122 µM)

## CCC1CN(c2c(F)cc3c(=O)c(C(=O)O)cn([C@@H]4C[C@@H]4F)c3c2OC)CC1(C)N (relative stereo) [Example 14, 7-[(3R*,4R*)-3-Amino-4-ethyl-3-methylpyrrolidin-1-yl]-6-fluoro-1-[(1R,2S)-2-fluorocyclopropyl]-8-methoxy-1,4-dihydro-4-oxoquinoline-3-carboxylic acid]
other
  melting point: 167 to 169 °C

## COc1c(N2CC(OC)C(C)(N)C2)c(F)cc2c(=O)c(C(=O)O)cn([C@@H]3C[C@@H]3F)c12 (stereo partly drawn) [Example 18, 7-(3-Amino-4-methoxy-3-methylpyrrolidine-1-yl)-6-fluoro-1-[(1R,2S)-2-fluorocyclopropyl]-8-methoxy-1,4-dihydro-4-oxoquinoline-3-carboxylic acid]
other
  melting point: 150 to 151 °C
